Data on 24 molecules can be found in patent publication US11446287B2, “Compounds and methods for EP300 or CBP modulation and indications therefor” (Opna Immuno-Oncology SA, priority 2019, dated 2022).

In this experiment the target is T1, Recombinant human EP300 containing the bromodomain (EP300-BD (1040-1161)) (Homo sapiens, UniProt Q09472).
T1 construct: Recombinant human EP300 bromodomain (EP300-BD (1040-1161)); made in house; host or cells: E. coli BL21-CodonPlus (DE3), modified pET vector
T1 sequence (Q09472 1040-1161): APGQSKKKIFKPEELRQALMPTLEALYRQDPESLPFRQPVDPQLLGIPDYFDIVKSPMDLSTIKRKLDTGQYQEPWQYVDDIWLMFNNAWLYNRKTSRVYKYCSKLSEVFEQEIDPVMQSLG
Nature of the experiment: EP300 Alphascreen binding assay. A digest of the protocol: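 Displacement of a biotinylated acetyl-K56 histone H3 peptide from the N-His bromodomain construct (1040-1161) measured by AlphaScreen proximity, beads at 7.5 μg/ml final, read 60 min after addition. Protein, peptide and compound first incubated 1 h at room temperature, pH 7.5 HEPES buffer; IC50 by four-parameter logistic fit.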
A general note: Alpha assays give light when donor and acceptor beads are brought close together.

Regarding `Cc1noc(C)c1-c1cnc2c(c1)c(-c1ccc(C(=O)O)cc1)cn2[C@@H](C)c1ccccn1` [P-0001, (S)-4-(5-(3,5-dimethylisoxazol-4-yl)-1-(1-(pyridin-2-yl)ethyl)-1H-pyrrolo[2,3-b]pyridin-3-yl)benzoic acid], the half-inhibitory concentration (IC50) fell in the range of 0.0001 to 1 µM. For `Cc1noc(C)c1-c1cnc2c(c1)c(-c1ccc(C(=O)O)cc1)cn2C(c1ccccn1)C1CCCC1` (stereo not drawn) [P-0002, 4-(1-(cyclopentyl(pyridin-2-yl)methyl)-5-(3,5-dimethylisoxazol-4-yl)-1H-pyrrolo[2,3-b]pyridin-3-yl)benzoic acid], the IC50 is 0.0001 to 1 µM. Turning to `Cc1noc(C)c1-c1cnc2c(c1)c(-c1ccccc1)cn2C(c1ccccn1)C1CCCC1` (stereo not drawn) [P-0003, 4-(1-(cyclopentyl(pyridin-2-yl)methyl)-3-phenyl-1H-pyrrolo[2,3-b]pyridin-5-yl)-3,5-dimethylisoxazole], the IC50 is 8 to 1000 µM. On to `Cc1noc(C)c1-c1cnc2c(c1)c(-c1ccc(C(=O)O)cc1)cn2C(c1ccccn1)C1CCCCC1` (stereo not drawn) [P-0004, 4-(1-(cyclohexyl(pyridin-2-yl)methyl)-5-(3,5-dimethylisoxazol-4-yl)-1H-pyrrolo[2,3-b]pyridin-3-yl)benzoic acid], for which the IC50 was 0.0001 to 1 µM. As for `COC(=O)c1ccc(-c2cn(S(=O)(=O)c3ccc(C)cc3)c3ncc(-c4c(C)noc4C)cc23)cc1` [P-0005, methyl 4-(5-(3,5-dimethylisoxazol-4-yl)-1-tosyl-1H-pyrrolo[2,3-b]pyridin-3-yl)benzoate], the figure is 8 to 1000 µM; as for `Cc1noc(C)c1-c1cnc2c(c1)c(-c1ccnc(C(=O)O)c1)cn2S(=O)(=O)c1ccccc1` [P-0055, 4-(5-(3,5-dimethylisoxazol-4-yl)-1-(phenylsulfonyl)-1H-pyrrolo[2,3-b]pyridin-3-yl)picolinic acid], 0.0001 to 1 µM; as for `COc1cccc(Cn2cc(-c3cccc(C(=O)O)c3)c3cc(-c4c(C)noc4C)cnc32)c1` [P-0056, 3-(5-(3,5-dimethylisoxazol-4-yl)-1-(3-methoxybenzyl)-1H-pyrrolo[2,3-]pyridin-3-yl)benzoic acid], 0.0001 to 1 µM. Consider `COc1cccc(Cn2cc(-c3ccnc(C(=O)O)c3)c3cc(-c4c(C)noc4C)cnc32)c1` [P-0057, 4-(5-(3,5-dimethylisoxazol-4-yl)-1-(3-methoxybenzyl)-1H-pyrrolo[2,3-b]pyridin-3-yl)picolinic acid], for which the IC50 lay in the range of 0.0001 to 1 µM. On to `Cc1noc(C)c1-c1cnc2c(c1)c(-c1cccc(C(=O)O)c1)cn2C(C1CC1)C1CC1` [P-0058, 3-(1-(dicyclopropylmethyl)-5-(3,5-dimethylisoxazol-4-yl)-1H-pyrrolo[2,3-b]pyridin-3-yl)benzoic acid], for which the IC50 fell in the range of 0.0001 to 1 µM. The result for `Cc1noc(C)c1-c1cnc2c(c1)c(-c1cccc(C(=O)O)c1)cn2Cc1cccc(OC(F)(F)F)c1` [P-0059, 3-(5-(3,5-dimethylisoxazol-4-yl)-1-(3-(trifluoromethoxy)benzyl)-1H-pyrrolo[2,3-b]pyridin-3-yl)benzoic acid] reads 0.0001 to 1 µM; that for `Cc1noc(C)c1-c1cnc2c(c1)c(-c1cccc(C(=O)O)c1)cn2Cc1cccc(F)c1` [P-0060, 3-(5-(3,5-dimethylisoxazol-4-yl)-1-(3-fluorobenzyl)-1H-pyrrolo[2,3-b]pyridin-3-yl)benzoic acid], 0.0001 to 1 µM; that for `Cc1noc(C)c1-c1cnc2c(c1)c(-c1cccc(C(=O)O)c1)cn2Cc1cccc(Cl)c1` [P-0061, 3-(1-(3-chlorobenzyl)-5-(3,5-dimethylisoxazol-4-yl)-1H-pyrrolo[2,3-b]pyridin-3-yl)benzoic acid], 0.0001 to 1 µM. Consider `Cc1cccc(Cn2cc(-c3cccc(C(=O)O)c3)c3cc(-c4c(C)noc4C)cnc32)c1` [P-0062, 3-(5-(3,5-dimethylisoxazol-4-yl)-1-(3-methylbenzyl)-1H-pyrrolo[2,3-b]pyridin-3-yl)benzoic acid], for which the IC50 is 0.0001 to 1 µM. `Cc1noc(C)c1-c1cnc2c(c1)c(-c1cccc(C(=O)O)c1)cn2Cc1cccc(C(F)(F)F)c1` [P-0063, 3-(5-(3,5-dimethylisoxazol-4-yl)-1-(3-(trifluoromethyl)benzyl)-1H-pyrrolo[2,3-b]pyridin-3-yl)benzoic acid]: the IC50 was in the range of 0.0001 to 1 µM. As for `Cc1noc(C)c1-c1cnc2c(CC3CCC3)cn(-c3ccc(C(=O)O)cc3OC(F)F)c2c1` [P-0064, 4-(3-(cyclobutylmethyl)-6-(3,5-dimethylisoxazol-4-yl)-1H-pyrrolo[3,2-b]pyridin-1-yl)-3-(difluoromethoxy)benzoic acid], the IC50 fell in the range of 0.0001 to 1 µM. As for `Cc1noc(C)c1-c1cnc2c(CC3CC3)cn(-c3ccnc(C(=O)O)c3)c2c1` [P-0065, 4-(3-(cyclopropylmethyl)-6-(3,5-dimethylisoxazol-4-yl)-1H-pyrrolo[3,2-b]pyridin-1-yl)picolinic acid], the half-inhibitory concentration (IC50) fell in the range of 0.0001 to 1 µM. The result for `Cc1noc(C)c1-c1cnc2c(CC3CCC3)cn(-c3ccc(C(=O)O)cc3OC(F)(F)F)c2c1` [P-0066, 4-(3-(cyclobutylmethyl)-6-(3,5-dimethylisoxazol-4-yl)-1H-pyrrolo[3,2-b]pyridin-1-yl)-3-(trifluoromethoxy)benzoic acid] reads 0.0001 to 1 µM; that for `COc1cc(C(=O)O)cc(OC)c1-n1cc(CC2CCC2)c2ncc(-c3c(C)noc3C)cc21` [P-0067, 4-(3-(cyclobutylmethyl)-6-(3,5-dimethylisoxazol-4-yl)-1H-pyrrolo[3,2-b]pyridin-1-yl)-3,5-dimethoxybenzoic acid], 0.0001 to 1 µM. As for `Cc1noc(C)c1-c1cnc2c(CC3CCC3)cn(-c3ccc(S(C)(=O)=O)c(F)c3)c2c1` [P-0068, 4-(3-(cyclobutylmethyl)-1-(3-fluoro-4-(methylsulfonyl)phenyl)-1H-pyrrolo[3,2-b]pyridin-6-yl)-3,5-dimethylisoxazole], the figure is 0.0001 to 1 µM.

As for `Cc1noc(C)c1-c1cnc2c(c1)c(C#CC(=O)O)cn2Cc1ccccc1` [P-0069, 3-(1-benzyl-5-(3,5-dimethylisoxazol-4-yl)-1H-pyrrolo[2,3-b]pyridin-3-yl)propiolic acid], the IC50 lay within 0.0001 to 1 µM. For `Cc1noc(C)c1-c1cnc2c(c1)c(-c1ccc(C(=O)O)cc1OC(F)(F)F)cn2[C@@H](C)c1ccccn1` [P-0070, (S)-4-(5-(3,5-dimethylisoxazol-4-yl)-1-(1-(pyridin-2-yl)ethyl)-1H-pyrrolo[2,3-b]pyridin-3-yl)-3-(trifluoromethoxy)benzoic acid], the IC50 lay in the range of 0.0001 to 1 µM. Take `Cc1noc(C)c1-c1cnc2c(c1)c(-c1ccc(C(=O)O)cc1OC(F)F)cn2[C@@H](C)c1ccccn1` [P-0071, (S)-3-(difluoromethoxy)-4-(5-(3,5-dimethylisoxazol-4-yl)-1-(1-(pyridin-2-yl)ethyl)-1H-pyrrolo[2,3-b]pyridin-3-yl)benzoic acid]: the concentration for half-maximal inhibition (IC50) lay in the range of 0.0001 to 1 µM. In the case of `Cc1noc(C)c1-c1cnc2c(c1)c(-c1cccc(C(=O)O)c1)cn2C(C1CCC1)C1CCC1` [P-0072, 3-(1-(dicyclobutylmethyl)-5-(3,5-dimethylisoxazol-4-yl)-1H-pyrrolo[2,3-b]pyridin-3-yl)benzoic acid], the IC50 was in the range of 0.0001 to 1 µM. The result for `Cc1noc(C)c1-c1cnc2c(c1)c(-c1cccc(C(=O)O)c1)cn2C(c1ccccn1)C1CCC1` (stereo not drawn) [P-0073, 3-(1-(cyclobutyl(pyridin-2-yl)methyl)-5-(3,5-dimethylisoxazol-4-yl)-1H-pyrrolo[2,3-b]pyridin-3-yl)benzoic acid] reads 0.0001 to 1 µM.

As a reminder, the IC50 is the concentration that inhibits the measured activity by half.
